Experimental data taken from publication PMC9200736, “Complete biosynthetic pathway to the antidiabetic drug acarbose” (Nature Communications, 2022).

Key:
[1] = target: T1, AcbU (Actinoplanes sp. SE50/110, UniProt Q27GS3); assay: PK/LDH coupled assay, A340; LC-MS of product; format: biochemical; details: ATP […], MgCl2 […], Tris-HCl pH […] °C; substrate […]
T1 construct: recombinant from pRSET-B in E. coli BL21(DE3)/pLysS, Ni-NTA purified
T1 sequence (Q27GS3 1-492): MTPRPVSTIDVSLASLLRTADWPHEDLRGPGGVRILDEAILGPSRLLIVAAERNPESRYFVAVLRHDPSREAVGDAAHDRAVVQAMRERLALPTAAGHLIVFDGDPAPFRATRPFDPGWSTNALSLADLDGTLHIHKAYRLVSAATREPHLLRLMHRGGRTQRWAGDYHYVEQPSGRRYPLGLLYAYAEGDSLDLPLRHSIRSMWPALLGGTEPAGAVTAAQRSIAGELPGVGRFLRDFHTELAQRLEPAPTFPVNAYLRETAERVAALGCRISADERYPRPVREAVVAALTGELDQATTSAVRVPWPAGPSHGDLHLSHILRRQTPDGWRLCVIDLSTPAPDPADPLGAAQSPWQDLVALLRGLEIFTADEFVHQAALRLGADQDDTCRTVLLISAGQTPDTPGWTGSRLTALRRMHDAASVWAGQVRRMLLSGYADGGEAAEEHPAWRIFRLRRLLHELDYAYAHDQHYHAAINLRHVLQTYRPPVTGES

[2] = target: T2, ValC (Streptomyces hygroscopicus, UniProt Q3T6E2); assay: preparative phosphorylation, conversion by PK/LDH assay; format: biochemical; details: ATP 6 mM, MgCl2 5 mM, Tris-HCl pH 7.5, 30 °C, 6 h
T2 construct: recombinant from pRSETB-valC in E. coli BL21(DE3)/pLysS, Ni-NTA purified
T2 sequence (Q3T6E2 1-351): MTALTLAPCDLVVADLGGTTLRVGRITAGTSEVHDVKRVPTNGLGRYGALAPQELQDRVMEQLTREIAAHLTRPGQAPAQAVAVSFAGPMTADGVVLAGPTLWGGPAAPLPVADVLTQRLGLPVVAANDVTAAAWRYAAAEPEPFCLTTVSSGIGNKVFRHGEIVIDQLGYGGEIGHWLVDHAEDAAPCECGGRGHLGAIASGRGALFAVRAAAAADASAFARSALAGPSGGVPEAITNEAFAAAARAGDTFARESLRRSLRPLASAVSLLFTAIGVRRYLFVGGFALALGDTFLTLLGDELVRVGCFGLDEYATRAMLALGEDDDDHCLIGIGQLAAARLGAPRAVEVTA

[3] = target: T3, AcbK (Actinoplanes sp. SE50/110, UniProt Q8RMD4); assay: as above; format: biochemical; details: ATP 6 mM, MgCl2 5 mM, Tris-HCl pH 7.5, 30 °C, 6 h
T3 construct: recombinant from pET28b in E. coli BL21(DE3)/pLysS, Ni-NTA purified

[4] = target: T4, AcbS (Actinoplanes sp. SE50/110, UniProt Q27GS2); assay: LC-QTOF/MS and MS/MS of product acarbose; format: biochemical; details: GDP-V generated in situ by AcbR from V1P and GTP; 4-aminoDGG […], MgCl2 […], pH […] °C, […] h
T4 construct: recombinant from pRSET-B in E. coli BL21(DE3)/pLysS, Ni-NTA purified
T4 sequence (Q27GS2 1-709): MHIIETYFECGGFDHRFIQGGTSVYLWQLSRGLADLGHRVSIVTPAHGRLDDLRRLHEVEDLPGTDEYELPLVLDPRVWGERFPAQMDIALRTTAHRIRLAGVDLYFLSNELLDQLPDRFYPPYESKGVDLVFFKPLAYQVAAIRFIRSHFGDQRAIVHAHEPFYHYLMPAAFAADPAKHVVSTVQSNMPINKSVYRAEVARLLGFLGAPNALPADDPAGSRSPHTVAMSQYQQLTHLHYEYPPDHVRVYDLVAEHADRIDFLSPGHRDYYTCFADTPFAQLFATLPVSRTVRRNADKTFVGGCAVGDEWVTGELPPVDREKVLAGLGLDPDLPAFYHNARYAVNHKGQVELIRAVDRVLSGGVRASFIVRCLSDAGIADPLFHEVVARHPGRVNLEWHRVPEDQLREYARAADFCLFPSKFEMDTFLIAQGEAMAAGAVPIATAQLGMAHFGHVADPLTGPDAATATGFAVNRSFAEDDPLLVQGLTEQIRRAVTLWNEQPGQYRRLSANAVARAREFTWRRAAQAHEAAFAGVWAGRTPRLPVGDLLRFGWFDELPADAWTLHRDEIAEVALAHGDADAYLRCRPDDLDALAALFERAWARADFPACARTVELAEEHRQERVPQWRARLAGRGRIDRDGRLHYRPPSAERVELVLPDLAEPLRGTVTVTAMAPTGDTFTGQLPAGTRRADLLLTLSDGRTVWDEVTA

[5] = test system: O=P(O)(O)OCC1=C[C@H](OP(=O)(O)O)[C@H](O)[C@@H](O)[C@@H]1O; assay: purified protein; details: Tris-HCl 20 mM pH 7.5, 30 °C, AcbJ 1.0 µM
[6] = test system: O=P(O)(O)O[C@H]1C=C(CO)[C@@H](O)[C@H](O)[C@H]1O; assay: purified protein; details: GTP 1 mM, MgCl2 1 mM, Tris-HCl pH 7.5, 30 °C, AcbR 1.0 µM

T3 sequence (Q8RMD4 whole entry): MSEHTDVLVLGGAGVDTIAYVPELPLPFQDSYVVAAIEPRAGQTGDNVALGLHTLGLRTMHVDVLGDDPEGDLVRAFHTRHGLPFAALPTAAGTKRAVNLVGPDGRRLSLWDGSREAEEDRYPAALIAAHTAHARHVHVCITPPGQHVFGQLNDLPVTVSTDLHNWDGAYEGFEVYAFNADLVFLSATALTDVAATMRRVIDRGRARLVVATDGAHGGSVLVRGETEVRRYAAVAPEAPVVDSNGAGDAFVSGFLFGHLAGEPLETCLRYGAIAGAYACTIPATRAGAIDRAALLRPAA

## OCC1=C[C@H](O)[C@H](O)[C@@H](O)[C@@H]1O [V]
[1]
  PK/LDH coupled assay, A340; LC-MS of product: AcbU can also phosphorylate valienol (V)
[2]
  preparative phosphorylation, conversion by PK/LDH assay: phosphorylation of synthetically prepared valienol using the cyclitol kinase ValC

## C[C@H]1O[C@H](O[C@H]2[C@H](O)[C@@H](O)[C@@H](O[C@H]3[C@H](O)[C@@H](O)C(O)O[C@@H]3CO)O[C@@H]2CO)[C@H](O)[C@@H](O)[C@@H]1N[C@H]1C=C(CO)[C@@H](O)[C@H](O)[C@H]1O (stereo partly drawn) [compound 1, acarbose]
[3]
  preparative phosphorylation, conversion by PK/LDH assay: prepared enzymatically from acarbose and ATP using the acarbose kinase AcbK

## O=P(O)(O)OCC1=C[C@H](O)[C@H](O)[C@@H](O)[C@@H]1O [compound 12, V7P]
[1]
  PK/LDH coupled assay, A340; LC-MS of product: V7P is a preferred substrate for AcbU to produce V1,7PP

## Nc1nc2c(ncn2[C@@H]2O[C@H](COP(=O)(O)OP(=O)(O)O[C@H]3C=C(CO)[C@@H](O)[C@H](O)[C@H]3O)[C@@H](O)[C@H]2O)c(=O)[nH]1 [compound 16, GDP-V]
[4]
  LC-QTOF/MS and MS/MS of product acarbose: incubation of recombinant AcbS with GDP-V (generated in situ

## AcbJ (Actinoplanes sp. SE50/110)
[5]
  Km: 817 ± 168 µM
  kcat: 0.367 ± 0.067 s⁻¹

## AcbR (Actinoplanes sp. SE50/110)
[6]
  Km: 412 ± 83 µM
  kcat: 0.233 ± 0.017 s⁻¹
